A value given as a limit tells only on which side of the number the result lay.

T1 sequence (P28845 whole entry): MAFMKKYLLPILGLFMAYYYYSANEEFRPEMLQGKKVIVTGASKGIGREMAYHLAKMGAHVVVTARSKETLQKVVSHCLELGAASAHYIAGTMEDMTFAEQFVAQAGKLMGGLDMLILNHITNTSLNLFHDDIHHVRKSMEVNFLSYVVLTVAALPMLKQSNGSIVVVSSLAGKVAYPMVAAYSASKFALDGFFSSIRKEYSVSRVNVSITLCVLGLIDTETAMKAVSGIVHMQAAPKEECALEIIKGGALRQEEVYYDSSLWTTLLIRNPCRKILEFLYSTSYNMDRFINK

One test addresses T1, 11beta-HSD1 (Homo sapiens, UniProt P28845).
Assay: not given
Details: host or cells: patients (liver), in vivo. Conditions: patients with type 2 diabetes, seven day treatment, versus placebo; cited from earlier work.
`CC1(C)[C@@H](OC(=O)CCC(=O)O)CC[C@]2(C)[C@H]3C(=O)C=C4[C@@H]5C[C@@](C)(C(=O)O)CC[C@]5(C)CC[C@@]4(C)[C@]3(C)CC[C@@H]12` [carbenoxolone]: the hepatic glucose production entry is given as “decrease in hepatic glucose production”.

The next test addresses T1, 11beta-HSD1. Kind of test: In vitro inhibition of recombinant human 11beta-HSD1 (microsomal Scintillation Proximity Assay). It counts as biochemical. Details: made in house; microsomal fraction used as enzyme source. Conditions: microsomes from HEK 293 EBNA cells, 250 nM [3H]-cortisone, 500 μM NADPH, pH 6.5, room temperature. As to the method:
The in vitro inhibition of recombinant human 11beta-HSD1 was determined as follows.
Cells were grown in DMEM (high glucose) containing MEM non-essential amino acids, L-glutamine, hygromycine B (200 ug/ml), and G418(200 ug/ml). The cell pellets were homogenized, and the microsomal fraction was obtained by differential centrifugation. 11beta-HSD1 over expressed microsomes were used as the enzyme source for the Scintillation Proximity Assay (SPA). […] The reaction was terminated with the addition of 1 mM 18β-glycerrhentic acid. SPA reagent mixture (YSi anti-rabbit IgG, anti-cortisol antibody in 50 mM Tris, pH 8.0 containing 1% CHAPS and 1% glycerol) was added and the reaction was further incubated at room temperature over night and counted in TopCount. […]
For orientation: Scintillation proximity formats need no separation of bound from free tracer.
For the compound `NC(=O)c1c(O)nc(SCc2ccccc2Cl)c2c1CCCC2` [Example 3, 1-(2-Chlorobenzylthio)-3-hydroxy-5,6,7,8-tetrahydroisoquinoline-4-carboxamide], the IC50 was over 10000 nM.

For `O=C(O)c1c(O)nc(SCc2ccccc2Cl)c2c1CCCC2` [Example 6, 1-(2-Chlorobenzylthio)-3-hydroxy-5,6,7,8-tetrahydroisoquinoline-4-carboxylic acid], the IC50 was found to be 470 nM.

For `Oc1cc2c(c(SCc3ccccc3Cl)n1)N1CCC2CC1` [Example 29], the IC50 is over 10000 nM.

For `N#Cc1c(O)nc(SCc2cccnc2Cl)c2c1CCCC2` [Example 32], the IC50 came out at 2.73 nM.

As for `N#Cc1c(O)nc(SCc2ccccc2Cl)c2c1CCNC2` [Example 35], the IC50 was determined as 460 nM.

On to `Oc1nc(SCc2cccc(Cl)c2)c2ccccc2c1Cl` [Example 115], for which the IC50 amounted to 780 nM.

Take `O=S(=O)(Cc1cccc(Cl)c1)c1nc(O)c(Cl)c2ccccc12` [Example 118]: the IC50 was 530 nM.

With `N#Cc1ccccc1CSc1nc(O)c(Cl)c2ccccc12` [Example 130], the IC50 was 2.7 nM.

For `N#Cc1ccccc1CSc1nc(O)c(Cl)c2ccc(Cl)cc12` [Example 132], the IC50 was 2.26 nM.

`N#Cc1c(O)nc(SCc2cnccc2Cl)c2cc(F)ccc12` [Example 164]: the IC50 amounted to 2.73 nM.

With `N#Cc1ccncc1CSc1nc(O)c(C#N)c2ccc(F)cc12` [Example 170], the IC50 came out at 1.49 nM.

As to `N#Cc1c(O)nc(SCc2cc(F)ccc2F)c2cc(F)ccc12` [Example 175], the IC50 was determined as 2.58 nM.

As to `N#Cc1cccc(Cl)c1CSc1nc(O)c(C#N)c2ccc(F)cc12` [Example 181], the IC50 came out at 3 nM.

For `N#Cc1ccccc1-c1c(O)nc(SCc2ccccc2Cl)c2c1CCCC2` [Example 292], the IC50 turned out to be 288 nM.

The test is the same for the next values; noted with them: read-out: IC50 (concentration of compound required for 50% inhibition of cortisol formation); microsomes from HEK 293 EBNA cells, 250 nM [3H]-cortisone, 500 μM NADPH, pH 6.5, room temperature.
With “4,7-Dichloro-1-(2-chlorobenzylthio)isoquinolin-3-ol [Example 109]”, the IC50 came out at 671 nM.
